Data on three compounds can be found in ChEMBL document CHEMBL5236567, “Discovery of a selective c-MET inhibitor with a novel binding mode” (Bioorg Med Chem Lett, 2022).

Assay [1] has as its target T1, Hepatocyte growth factor receptor (Homo sapiens, UniProt P08581). Briefly: Inhibition of his-tagged wild type c-MET (1050 to 1346 residues) (unknown origin) in human NCI-H1993 cells by HTRF analysis. The format is cell-based.
Assay [2] concerns the target T2, Hepatocyte growth factor receptor (Homo sapiens, UniProt P08581, D1228V). Description: Inhibition of his-tagged c-MET D1228V mutant (1050 to 1346 residues) (unknown origin) in human NCI-H1993 cells by HTRF analysis. The format is cell-based. (In general: Time-resolved FRET reads energy transfer from a long-lived donor to a nearby acceptor.)
Assay [3] addresses T1, Hepatocyte growth factor receptor. Briefly: Inhibition of his-tagged wild type c-MET (1050 to 1346 residues) (unknown origin) by ADP-glo assay.
Assay [4] has the same target. Description: Binding affinity to his-tagged wild type c-MET (1050 to 1346 residues) (unknown origin) by surface plasmon resonance analysis.
The target of assay [5] is T2, Hepatocyte growth factor receptor. Description: Binding affinity to his-tagged c-MET D1228V mutant (1050 to 1346 residues) (unknown origin) assessed as dissociation constant by surface plasmon resonance analysis.
The target is the same in assay [6]. Description: Inhibition of his-tagged c-MET D1228V mutant (1050 to 1346 residues) (unknown origin) by ADP-glo assay.
The target of assay [7] is TRAF2 and NCK-interacting protein kinase (Homo sapiens) (UniProt Q9UKE5). Briefly: Inhibition of TNIK (unknown origin) at 10 uM relative to control.
Chain of TRAF2 and NCK-interacting protein kinase (Homo sapiens) (Q9UKE5 whole entry, looked up): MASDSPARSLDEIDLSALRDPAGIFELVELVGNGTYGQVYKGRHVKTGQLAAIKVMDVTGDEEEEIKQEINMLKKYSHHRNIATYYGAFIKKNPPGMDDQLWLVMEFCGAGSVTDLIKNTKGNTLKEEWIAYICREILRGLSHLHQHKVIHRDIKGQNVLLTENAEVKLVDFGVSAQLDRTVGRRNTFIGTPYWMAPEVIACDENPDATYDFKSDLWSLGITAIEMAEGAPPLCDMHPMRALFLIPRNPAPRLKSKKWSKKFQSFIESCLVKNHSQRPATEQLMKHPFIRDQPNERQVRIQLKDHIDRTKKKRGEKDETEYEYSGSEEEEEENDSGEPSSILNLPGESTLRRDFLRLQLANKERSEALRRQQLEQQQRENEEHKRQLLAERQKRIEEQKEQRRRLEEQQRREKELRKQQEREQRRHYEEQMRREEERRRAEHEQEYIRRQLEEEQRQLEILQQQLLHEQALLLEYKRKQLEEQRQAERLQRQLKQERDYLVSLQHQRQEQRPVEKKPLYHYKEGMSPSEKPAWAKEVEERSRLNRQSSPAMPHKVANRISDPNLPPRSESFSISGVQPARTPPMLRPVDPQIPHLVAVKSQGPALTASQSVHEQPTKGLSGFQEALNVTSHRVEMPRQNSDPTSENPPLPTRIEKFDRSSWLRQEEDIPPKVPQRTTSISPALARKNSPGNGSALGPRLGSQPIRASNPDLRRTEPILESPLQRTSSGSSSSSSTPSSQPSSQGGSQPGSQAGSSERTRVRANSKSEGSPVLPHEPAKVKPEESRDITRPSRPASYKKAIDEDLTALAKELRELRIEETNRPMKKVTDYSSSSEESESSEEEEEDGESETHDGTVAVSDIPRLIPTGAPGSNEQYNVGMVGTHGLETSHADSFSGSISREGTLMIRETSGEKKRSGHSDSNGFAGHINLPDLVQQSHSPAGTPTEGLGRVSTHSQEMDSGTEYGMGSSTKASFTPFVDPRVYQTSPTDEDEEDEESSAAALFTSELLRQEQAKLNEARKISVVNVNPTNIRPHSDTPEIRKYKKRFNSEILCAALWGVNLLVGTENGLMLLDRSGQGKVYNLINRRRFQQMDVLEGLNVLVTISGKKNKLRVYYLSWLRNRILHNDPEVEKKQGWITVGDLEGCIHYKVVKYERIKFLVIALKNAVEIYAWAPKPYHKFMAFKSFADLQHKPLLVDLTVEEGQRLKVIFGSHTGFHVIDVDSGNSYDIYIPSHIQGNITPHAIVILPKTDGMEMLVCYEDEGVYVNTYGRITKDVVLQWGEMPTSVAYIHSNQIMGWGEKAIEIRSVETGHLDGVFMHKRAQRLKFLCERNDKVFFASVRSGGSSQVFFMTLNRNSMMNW
Assay [8] deals with T1, Hepatocyte growth factor receptor. Briefly: Inhibition of wild type c-MET (unknown origin ) at 10 uM relative to control.
Assay [9] concerns the target Calcium/calmodulin-dependent protein kinase type 1 (Homo sapiens) (UniProt Q14012). Briefly: Inhibition of CAMK1 (unknown origin) at 10 uM relative to control.
Assay [10] concerns the target T1, Hepatocyte growth factor receptor. Briefly: Binding affinity to his-tagged c-MET (1050 to 1346 residues) (unknown origin) assessed as binding constant (Koff) by surface plasmon resonance analysis. (In general: SPR reads the build-up and loss of mass on a sensor chip optically.)
The target is the same in assay [11]. Briefly: Binding affinity to his-tagged c-MET (1050 to 1346 residues) (unknown origin) assessed as binding constant (Kon) by surface plasmon resonance analysis.

Structures are written as SMILES.

Chain of Calcium/calmodulin-dependent protein kinase type 1 (Homo sapiens) (Q14012 whole entry, looked up, the tested form may be a part): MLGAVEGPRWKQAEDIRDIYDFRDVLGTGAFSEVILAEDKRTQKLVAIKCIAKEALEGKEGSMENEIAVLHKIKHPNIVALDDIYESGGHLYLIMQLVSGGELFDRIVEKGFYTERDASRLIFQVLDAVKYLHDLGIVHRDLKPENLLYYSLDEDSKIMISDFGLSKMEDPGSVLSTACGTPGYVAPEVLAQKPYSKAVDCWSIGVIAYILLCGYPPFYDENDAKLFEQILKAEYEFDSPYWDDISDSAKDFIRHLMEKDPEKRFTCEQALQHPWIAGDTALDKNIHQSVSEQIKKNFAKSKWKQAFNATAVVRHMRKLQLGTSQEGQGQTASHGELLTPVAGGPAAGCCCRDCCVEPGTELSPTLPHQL

As for `Cc1ccc(-c2ccc3c(C)n[nH]c3c2)c2c1[C@@H](N(C)C(=O)c1ncccc1C(F)F)CCC2`, the IC50 entry was “Not Active” in assay [1] (nci-h1993), “Not Active” in assay [2] (nci-h1993), 4.94 µM in assay [3] and 11 µM in [6]. The figures for the Kd in assay [4] and in [5] were 2.8 µM and 5.3 µM, respectively.
In the case of `Cc1ccc(-c2ccc3c(C)n[nH]c3c2)c2c1[C@H](N(C)C(=O)c1ncccc1C(F)F)CCC2`, the inhibition in assay [7], in assay [8] and in assay [9] was > 70% in each case. The IC50 is > 30 µM in [1] (read-out: IC50), 12 µM in assay [2] (read-out: IC50), 0.9 µM in assay [3] and 0.09 µM in [6]. Also, the results for the Kd in assay [4] and in [5] were 7.2 µM and 0.65 µM, respectively.
With `Cc1ccc(-c2ccc3c(C)n[nH]c3c2)c2c1C(N(C)C(=O)c1ncccc1C(F)F)CCC2` (racemic), the values for the Kd in assay [4] and in [5] were > 20 µM and 1.4 µM, respectively. The koff in assay [10] worked out at 0.0053 s⁻¹. The K in [11] is 3.7 10^3/M/s.

As usually defined, the IC50 is the concentration at which inhibition is half-maximal. The Kd is the constant that tells how readily two partners part at equilibrium. As a reminder, the inhibition is the change of the read-out against control, counted positive when it falls. The term koff denotes the first-order rate constant of dissociation.
